Reference: patent US9353101B2 (Merck Sharp & Dohme Corp., priority 2012, dated 2016)

The compounds below were run against CETP (Homo sapiens (Human), UniProt P11597) (assay: In vitro radioactive assay of CETP-catalyzed CE and TG transfer (RTA assay), 95% human serum). Conditions: RTA assay in 95% human serum; read-out: RTA IC50 (CETP Inhibition).
Format: biochemical
Experimental: In Vitro Radioactive Assays of CETP-Catalyzed CE and TG Transfer (RTA Assay)
Reagents and sources are: [3H] cholesteryl oleate (GE #TRK.886), [3H] Triolein (Perkin-Elmer NET-431), Butylated hydroxyl toluene (Aldrich, #D4740-4), DOPC (Sigma, # P6354), Sodium Bromide (Fisher scientific #S255-500), PEG 8000 (Fisher, #BP233-1), and human HDL (Intracel Corp #RP-036).
An in vitro assay for determining IC50's to identify compounds that inhibit CETP transfer activity is performed based on a modification of a published method (Morton and Zilversmit, (1981) A plasma inhibitor of triglyceride and cholesteryl ester transfer activities, J. Biol. Chem. 256(23), 11992-11995). The ability of inhibitors to alter CETP activity is performed using two different assays: one using recombinant CETP and one using an endogenous plasma source of CETP. Both assays measure the transfer of [3H] cholesteryl oleate or [3H] triolein from exogenous LDL to HDL.
Radiolabeled donor particles are generated by first combining 100 μl of 200 μM butylated hydroxyl toluene in CHCl3, 216 μL of 21.57 mM DOPC in EtOH, and either 500 μCi [3H]-triolein (Perkin Elmer #NET-431) or 500 μCi [3H]-cholesteryl oleate (GE #TRK886) in a glass tube. Reagents are mixed, dried under nitrogen, and then resuspended in 2 mL of 50 mM Tris, 27 μM EDTA at pH 7.4. After a brief vortex, the solution is sonicated until clear and mixed with 20 mL of fresh human serum. The mixture is incubated overnight at 37° C. The [3H] labeled LDL substrate is separated at 1.063 g/ml density by sequential ultracentrifugal flotation in NaBr according to the method by (Havel, Eder et al. 1955; Chapman, Goldstein et al. 1981). Once isolated the particles are dialyzed 3× in CETP buffer (50 mM Tris, pH 7.4, 100 mM NaCl, 1 mM EDTA). Human HDL is purchased from Intracel and used as the acceptor particles.
Transfer assays are performed in a 96 or 384-well v-bottom polypropylene plate. For the RTA using recombinant CETP (2% RTA), an assay cocktail is prepared with the final concentrations 128 μg/mL HDL, 20 nM rCETP, 2% human serum, and 1×CETP buffer. 1 μL of each test compound diluted in DMSO is added to 47 μL of assay cocktail per well and incubated at 37° C. for 1 hour. To initiate the transfer reaction, 2 μL radiolabeled LDL is added. After an additional 60 min of incubation at 37° C., the transfer action is terminated by precipitation of LDL with an equal volume of 20% W/V PEG 8000. The plates are centrifuged at 2000 rpm for 30 minutes at 4° C. A 40 μL aliquot of the HDL-containing supernatant is transferred to a Packard Optiplate™ with 200 μL of MicroScint™ 20. After mixing, plates are counted by liquid scintillation. Counts present in the supernatant for blanks (wells containing only HDL acceptor, CETP buffer and DMSO) are subtracted from those containing test compounds and used to correct for non-specific transfer.
For the transfer assay using endogenous CETP from serum (95% RTA), the same procedure is used except that human serum is added such that a final concentration of serum of 95% of the total assay volume is achieved, yielding a concentration of approximately 15 nM endogenous CETP in the assay. This is then combined with HDL and CETP buffer and the reaction proceeds as above and is terminated as described.
Comparison of the counts of samples with inhibitors to an uninhibited (DMSO only) positive control yield a percent inhibition. A plot of percent inhibition vs. log of inhibitor concentration, fit to a Sigmoidal 4 parameter equation is used to calculate IC50.
Starting materials are commercially available or are made using known procedures or as shown below. The examples may be synthesized using the general schemes provided below. The data reported for the examples below were obtained using the RTA assay in 95% human serum.

CETP, sequence (P11597 18-493 limits assumed): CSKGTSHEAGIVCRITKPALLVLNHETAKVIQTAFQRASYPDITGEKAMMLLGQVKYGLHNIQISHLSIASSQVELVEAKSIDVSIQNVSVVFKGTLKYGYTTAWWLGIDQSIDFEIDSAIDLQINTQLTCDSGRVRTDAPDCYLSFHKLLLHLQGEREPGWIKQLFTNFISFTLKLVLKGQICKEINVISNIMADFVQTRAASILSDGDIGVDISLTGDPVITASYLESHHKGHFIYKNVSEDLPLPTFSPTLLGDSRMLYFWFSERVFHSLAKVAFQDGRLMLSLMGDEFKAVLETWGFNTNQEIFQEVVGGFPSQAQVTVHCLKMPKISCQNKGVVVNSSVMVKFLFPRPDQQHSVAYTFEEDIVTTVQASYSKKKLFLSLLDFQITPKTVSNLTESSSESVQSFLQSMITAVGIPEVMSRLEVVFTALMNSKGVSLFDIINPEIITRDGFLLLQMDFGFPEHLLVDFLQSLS

SMILES	IC50 [nM]
COc1ncc(C(C)(O)C(F)(F)F)cc1-c1cnc(N2CC(F)C2)nc1CN1C(=O)O[C@H](c2cc(C(F)(F)F)cc(C(F)(F)F)c2)[C@@H]1C (mixture of isomers) [Example 16, (4S,5R)-5-[3,5-Bis(trifluoromethyl)phenyl]-3-{[2-(3-fluoroazetidin-1-yl)-5-{2-methoxy-5-[(2RS)-1,1,1-trifluoro-2-hydroxypropan-2-yl]pyridin-3-yl}pyrimidin-4-yl]methyl}-4-methyl-1,3-oxazolidin-2-one]	14
COc1ncc(-c2sc(C)nc2C)cc1-c1cnc(N2CC(F)C2)nc1CN1C(=O)O[C@H](c2cc(C(F)(F)F)cc(C(F)(F)F)c2)[C@@H]1C [Example 3, (4S,5R)-5-[3,5-Bis(trifluoromethyl)phenyl]-3-({5-[5-(2,4-dimethyl-1,3-thiazol-5-yl)-2-methoxypyridin-3-yl]-2-(3-fluoroazetidin-1-yl)pyrimidin-4-yl}methyl)-4-methyl-1,3-oxazolidin-2-one]	3
COc1ncc(-c2c(C)nn(C)c2C)cc1-c1cnc(N2CC(F)C2)nc1CN1C(=O)O[C@H](c2cc(C(F)(F)F)cc(C(F)(F)F)c2)[C@@H]1C [Example 6]	3
COc1ncc(-c2c(C)noc2C)cc1-c1cnc(N2CC(F)C2)nc1CN1C(=O)O[C@H](c2cc(C(F)(F)F)cc(C(F)(F)F)c2)[C@@H]1C [Example 7]	3
COc1ncc(CCC(=O)O)cc1-c1cnc(N2CC(F)C2)nc1CN1C(=O)O[C@H](c2cc(C(F)(F)F)cc(C(F)(F)F)c2)[C@@H]1C [Example 8]	92
COc1ncc(C(F)(F)F)cc1-c1cnc(N2CC(F)C2)nc1CN1C(=O)O[C@H](c2cc(C(F)(F)F)cc(C(F)(F)F)c2)[C@@H]1C [Example 9, (4S,5R)-5-[3,5-Bis(trifluoromethyl)phenyl]-3-({2-(3-fluoroazetidin-1-yl)-5-[2-methoxy-5-(trifluoromethyl)pyridin-3-yl]pyrimidin-4-yl}methyl)-4-methyl-1,3-oxazolidin-2-one]	14
CCOc1ncc(C(F)(F)F)cc1-c1cnc(N2CC(F)C2)nc1CN1C(=O)O[C@H](c2cc(C(F)(F)F)cc(C(F)(F)F)c2)[C@@H]1C [Example 10]	12
COc1ncc(C(C)C)cc1-c1cnc(N2CC(F)C2)nc1CN1C(=O)O[C@H](c2cc(F)cc(F)c2)[C@@H]1C [Example 14, (4S,5R)-5-(3,5-Difluorophenyl)-3-{[2-(3-fluoroazetidin-1-yl)-5-(5-isopropyl-2-methoxypyridin-3-yl)pyrimidin-4-yl]methyl}-4-methyl-1,3-oxazolidin-2-one]	16
COc1ncc(-c2c(C)n[nH]c2C)cc1-c1cnc(N2CC(F)C2)nc1CN1C(=O)O[C@H](c2cc(C(F)(F)F)cc(C(F)(F)F)c2)[C@@H]1C [Example 17, (4S,5R)-5-[3,5-Bis(trifluoromethyl)phenyl]-3-({5-[5-(3,5-dimethyl-1H-pyrazol-4-yl)-2-methoxypyridin-3-yl]-2-(3-fluoroazetidin-1-yl)pyrimidin-4-yl}methyl)-4-methyl-1,3-oxazolidin-2-one]	5
CCCn1nc(C)c(-c2cnc(OC)c(-c3cnc(N4CC(F)C4)nc3CN3C(=O)O[C@H](c4cc(C(F)(F)F)cc(C(F)(F)F)c4)[C@@H]3C)c2)c1C [Example 18, (4S,5R)-5-[3,5-Bis(trifluoromethyl)phenyl]-3-({5-[5-(3,5-dimethyl-1-propyl-1H-pyrazol-4-yl)-2-methoxypyridin-3-yl]-2-(3-fluoroazetidin-1-yl)pyrimidin-4-yl}methyl)-4-methyl-1,3-oxazolidin-2-one]	12
CCn1nc(C)c(-c2cnc(OC)c(-c3cnc(N4CC(F)C4)nc3CN3C(=O)O[C@H](c4cc(C(F)(F)F)cc(C(F)(F)F)c4)[C@@H]3C)c2)c1C [Example 19]	9
COc1ncc(-c2c(C)nn(CC#N)c2C)cc1-c1cnc(N2CC(F)C2)nc1CN1C(=O)O[C@H](c2cc(C(F)(F)F)cc(C(F)(F)F)c2)[C@@H]1C [Example 21]	18
COc1ncc(-c2c(C)nn(CC(N)=O)c2C)cc1-c1cnc(N2CC(F)C2)nc1CN1C(=O)O[C@H](c2cc(C(F)(F)F)cc(C(F)(F)F)c2)[C@@H]1C [Example 22]	22
